Test results: patent EP0623339B1, “Use of 4-,4- and 5-, or 4- and 6-substituted derivatives of resorcin in cosmetic or dermopharmaceutical compositions for depigmentation” (L'OREAL, priority 1993, dated 1994)

Test system: tyrosinase de champignons
Test: in vitro inhibition test of tyrosinase activity (dopachrome formation followed at 475 nm)
Format: biochemical
Settings: lowering of maximal dopachrome formed (OD 475 nm at plateau) vs. no inhibitor; inhibitor at 50 % molaire relative to tyrosine; pH = 6,5; 25°C
From the text: Certains des composés de formule générale (I) ont été étudiés comparativement à l'hydroquinone à quantité molaire équivalente dans le test d'inhibition in vitro de l'activité de la tyrosinase.
Selon ce test on suit par spectrométrie visible à 475 nm la quantité de dopachrome formée au cours de la chaîne de réactions de transformation de la tyrosine en mélanines. Ces réactions sont catalysées in vitro par la tyrosinase de champignons, en présence d'un co-substrat réducteur (par exemple la L-dopa en petite quantité) pour initier la réaction d'hydroxylation de la L-tyrosine en L-dopa, laquelle est ensuite oxydée catalytiquement en dopaquinone puis en dopachrome, produit intermédiaire avant les réactions d'oxydation non enzymatiques aboutissant à la formation des mélanines.
On mesure donc la concentration en dopachrome formé au cours du temps en présence et en absence de l'inhibiteur. […]
On exprime l'effet d'inhibition par l'abaissement de la quantité maximale de dopachrome formée (valeur de densité optique à 475 nm lue au plateau de la courbe) par rapport à la quantité obtenue en l'absence d'inhibiteur. […]
• cuve de référence : 3 ml de A • cuve d'essai : 1 ml de B 0,1 ml de C 1,85ml de A + E • homogénéiser et équilibrer à 25°C • ajouter 0,05 ml de D • mélanger rapidement et observer la cinétique par la mesure de l'absorbance à 475 nm en fonction du temps.

Oc1ccc(O)cc1 [hydroquinone]
% d'inhibition: -33%
